In patent publication US8288396B2, “Pyrimidopyrimidoindazole derivative” (MSDKK, priority 2009, dated 2012) one finds IC50 and EC50 data, which are given here for six compounds.

The structures appear in SMILES notation.

Test [1] deals with T1, Wee1 kinase (Homo sapiens, UniProt P30291).
T1 construct: made in house; host or cells: Sf9 insect cells (recombinant baculovirus)
The test can be described thus: Wee1 kinase inhibitory effect (Pharmacological Test 1). In kind it is biochemical. The conditions noted are these: GST-tagged Wee1 kinase, Poly(Lys, Tyr) substrate, 10 μM ATP, 30° C. for 30 minutes. The text has this: Pharmacological Test 1 (Wee1 Kinase Inhibitory Effect)
(1) Purification of Wee1 Kinase
A cDNA of Wee1 kinase with […] (GST) fused at the amino terminal thereof was inserted into a baculovirus expression vector to construct a recombinant baculovirus, with which cells of an insect cell line Sf9 were infected to overexpress the target protein. The infected cells were collected and lysed, and then the GST-tagged Wee1 kinase protein was adsorbed to a glutathione column and eluted from the column with glutathione, and the active fraction was desalted in a desalting column to give a purified enzyme.
(2) Measurement of Wee1 Kinase Activity
In measurement of the Wee1 kinase activity, a synthetic peptide, Poly(Lys, Tyr) hydrobromide (Lys:Tyr (4:1)) purchased from Sigma was used as the substrate.
The amount of the reaction mixture was 21.1 μL; and the composition of the reaction buffer was 50 mM Tris-HCl buffer (pH 7.4)/10 mM magnesium chloride/1 mM dithiothreitol. The purified Wee1 kinase, 2.5 μg of the substrate peptide, 10 μM of non-labeled adenosine triphosphate (ATP) and 1 μCi of [γ-^33P]-labeled ATP (2500 Ci/mmol or more) were added to the reaction buffer, and the resulting mixture was incubated at 30° C. for 30 minutes. Thereafter, 10 μL of 350 mM phosphate buffer was added to the reaction system to stop the reaction. The substrate peptide was adsorbed on a P81 paper filter 96-well plate and the plate was washed several times with 130 mM phosphate buffer, and the radioactivity thereof was counted using a liquid scintillation counter. The [γ-^33P]-labeled ATP was purchased from Amersham Bioscience, Ltd.
The addition of a test compound to the reaction system was carried out by preparing a series of dilutions of the compound with dimethyl sulfoxide (DMSO) and adding 1.1 μL of each dilution to the reaction system. As a control, 1.1 μL of DMSO was added to the reaction system.

Test [2] relates to Cdc2 (Cdk1) tyrosine-15 phosphorylation. The test can be described thus: Inhibitory effect on Cdc2 (Cdk1) tyrosine-15 phosphorylation in NCI-H1299 cells (Pharmacological Test 2). In kind it is cell-based. To be noted: Homo sapiens, camptothecin 200 nM 16 hours, then test compound with nocodazole 8 hours, ELISA, read-out: Cdc2-Y15 Phosphorylation-Inhibitory Effect (H1299, +camptothecin) (EC50). The source says:
Pharmacological Test 2 (Method for Determining Drug Effect Using Cells (Inhibitory Effect on Cdc2 (Cdk1) Tyrosine-15 Phosphorylation))
Fetal bovine serum (FBS) was purchased from Morgate, Inc.; an RPMI-1640 medium and a DMEM medium were purchased from Invitrogen, Inc.; camptothecin was purchased from Sigma Co.; gemcitabine was purchased from Eli Lilly Japan K.K.; nocodazole and protease inhibitor cocktail were purchased from Sigma Co.; a rabbit anti-Cdc2 antibody and a mouse anti-Cdc2 antibody were purchased from Santa Cruz Biotechnology, Inc.; a rabbit anti-tyrosine-15-phosphorylated Cdc2 antibody and a horseradish peroxidase-labeled anti-mouse IgG antibody were purchased from Cell Signaling Technology, Inc.; and Sure Blue Reserve TMB peroxidase substrate was purchased from Kirkegaard & Perry Laboratories, Inc.
A human non-small cell lung cancer cell line (NCI-H1299) and a human colon cancer cell line (WiDr) can be obtained from American Type Culture Collection (ATCC).
In the method using NCI-H1299 cells, the cells were suspended in an RPMI-1640 medium supplemented with 10% FBS, and 100 μL of the resulting cell suspension was dispensed in a Nunclon Delta treated 96-well plastic plate purchased from Nunc, Inc. at a density of 2000 cells per well, and the plate was incubated overnight at 37° C. under an atmosphere of 5% CO2 and 95% air. Camptothecin was dissolved in dimethyl sulfoxide (DMSO) and further the resulting solution was diluted with an RPMI-1640 medium supplemented with 10% FBS. Then, 50 μL of the diluted solution was added to each well of the plate in which the cells were seeded in advance such that the final concentration of camptothecin was 200 nM, and the plate was incubated at 37° C. under an atmosphere of 5% CO2 and 95% air for 16 hours. A test compound was serially diluted with DMSO, and further diluted with an RPMI-1640 medium supplemented with 10% FBS containing 4000 nM nocodazole. Then, 50 μL of the test compound solution was added to each well of the plate in which the cells treated with camptothecin were seeded, and the plate was incubated at 37° C. under an atmosphere of 5% CO2 and 95% air for 8 hours. Then, the culture medium was removed from each well and 100 μL of a cell lysis buffer was added to each well, and the plate was shaken at 4° C. for 2 hours, and thereafter the liquid in the plate was frozen at −80° C. and then thawed, which was used as a lysed cell solution. Cdc2 and tyrosine-15-phosphorylated Cdc2 in this lysed cell solution were measured by an enzyme-linked immunosorbent assay (ELISA method), and a ratio of tyrosine-15-phosphorylated Cdc2 to Cdc2 was calculated to determine a 50% effective concentration (EC50, nM) of the test compound for inhibition of phosphorylation in cells. The cell lysis buffer as used herein is an aqueous solution containing 20 mM HEPES (pH 7.5), 150 mM sodium chloride, 1 mM disodium ethylenediamine tetraacetate, 0.1% polyoxyethylene (10) octylphenyl ether, 1% protease inhibitor cocktail, 1 mM dithiothreitol, 2 mM sodium orthovanadate, 10 mM sodium fluoride and 10 mM glycerol diphosphate. The measurement of Cdc2 by the ELISA method was carried out as follows. 50 μL of a solution of a rabbit anti-Cdc2 antibody obtained by diluting the antibody to 200 times with 50 mM carbonate-bicarbonate buffer (pH 9.6) was dispensed into each well of a 96-well Maxisorb immunoplate purchased from Nunc, Inc., and the immunoplate was let stand overnight at 4° C. to immobilize the antibody thereto. Subsequently, each well was washed three times with phosphate buffered saline (PBS), and 300 μL of PBS containing 5% bovine serum albumin (5% BSA/PBS) was added to each well, and then, the immunoplate was let stand at room temperature for 2 hours. […]

T1 sequence (P30291 whole entry): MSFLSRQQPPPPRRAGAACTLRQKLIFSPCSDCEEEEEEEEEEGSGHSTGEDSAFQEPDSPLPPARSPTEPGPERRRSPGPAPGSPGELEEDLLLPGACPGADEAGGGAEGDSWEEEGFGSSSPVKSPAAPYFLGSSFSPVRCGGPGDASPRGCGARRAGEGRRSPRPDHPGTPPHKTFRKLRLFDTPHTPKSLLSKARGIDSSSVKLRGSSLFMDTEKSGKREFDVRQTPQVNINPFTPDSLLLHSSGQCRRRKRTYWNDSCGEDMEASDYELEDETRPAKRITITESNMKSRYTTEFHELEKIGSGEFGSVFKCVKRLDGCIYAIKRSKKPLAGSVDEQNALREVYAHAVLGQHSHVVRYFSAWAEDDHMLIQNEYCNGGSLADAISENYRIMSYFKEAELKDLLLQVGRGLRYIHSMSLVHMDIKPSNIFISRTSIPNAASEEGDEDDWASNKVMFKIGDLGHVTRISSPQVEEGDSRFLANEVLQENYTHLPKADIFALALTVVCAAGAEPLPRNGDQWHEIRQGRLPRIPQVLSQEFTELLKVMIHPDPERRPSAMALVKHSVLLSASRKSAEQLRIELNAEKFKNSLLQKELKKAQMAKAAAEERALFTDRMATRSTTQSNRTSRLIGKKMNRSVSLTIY

What is called IC50 is the midpoint of a concentration-inhibition curve. Lower therefore signals higher potency. A word on the EC50: it is the concentration giving half of the maximal effect. For the compound `CN1CCc2cc(Nc3ncc4c(=O)n5c(nc4n3)c3ccccc3n5-c3ncccn3)ccc2C1(C)C` [Example 103, 7-(pyrimidin-2-yl)-2-[(1,1,2-trimethyl-1,2,3,4-tetrahydroisoquinolin-6-yl)amino]pyrimido[4′,5′:4,5]pyrimido[1,2-b]indazol-5(7H)-one], in test [1], the IC50 was determined as 6.8 nM. Moreover, in test [2], the EC50 worked out at 31 nM.
As to `CN1CCc2cc(Nc3ncc4c(=O)n5c(nc4n3)c3ccccc3n5-c3nccs3)ccc2C1` [Example 136, 2-[(2-methyl-1,2,3,4-tetrahydroisoquinolin-6-yl)amino]-7-(1,3-thiazol-2-yl)pyrimido[4′,5′:4,5]pyrimido[1,2-b]indazol-5(7H)-one], inhibition in test [1] was half-maximal at 5.3 nM (IC50). Besides, in test [2], the EC50 was 11 nM.
The like results for `CN1CCc2ccc(Nc3ncc4c(=O)n5c(nc4n3)c3ccccc3n5-c3nccs3)cc2C1` [Example 137, 2-[(2-methyl-1,2,3,4-tetrahydroisoquinolin-7-yl)amino]-7-(1,3-thiazol-2-yl)pyrimido[4′,5′:4,5]pyrimido[1,2-b]indazol-5(7H)-one] were, in that order, 6.1 nM and 17 nM.
Take `CN(C)CCN1CCOc2cc(Nc3ncc4c(=O)n5c(nc4n3)c3ccccc3n5-c3nccs3)ccc21` [Example 143, 2-({4-[2-(dimethylamino)ethyl]-3,4-dihydro-2H-1,4-benzoxazin-7-yl}amino)-7-(1,3-thiazol-2-yl)pyrimido[4′,5′:4,5]pyrimido[1,2-b]indazol-5(7H)-one]: in test [1], inhibition was half-maximal at 15 nM (IC50). In test [2], the EC50 was 190 nM.
The corresponding values for `CN(C)CCN1CCc2cc(Nc3ncc4c(=O)n5c(nc4n3)c3ccccc3n5-c3nccs3)ccc21` [Example 144, 2-({1-[2-(dimethylamino)ethyl]-2,3-dihydro-1H-indol-5-yl}amino)-7-(1,3-thiazol-2-yl)pyrimido[4′,5′:4,5]pyrimido[1,2-b]indazol-5(7H)-one] are 15 nM and 190 nM.
The corresponding values for `CN1CCN(c2ccc(Nc3ncc4c(=O)n5c(nc4n3)c3ccccc3n5-c3ccoc3)cc2)CC1` [Example 147, 7-(furan-3-yl)-2-{[4-(4-methylpiperazin-1-yl)phenyl]amino}pyrimido[4′,5′:4,5]pyrimido[1,2-b]indazol-5(7H)-one] are 5.8 nM and 170 nM.
